These results are taken from patent US20220304936A1, “DRUG-POLYMER AMORPHOUS SOLID DISPERSIONS USING LINEAR POLY(ACRYLIC ACID) POLYMERS” (LUBRIZOL ADVANCED MATERIALS, INC., priority 2019, published 2022).

Converted amounts (≈) assume the structure as drawn.

The conditions of data set [1]: cited from earlier work.
Data set [2] in a line: Solubility limit of drug in equilibrated dissolution media. Format: physicochemical. The conditions noted are these: equilibrated dissolution media (0.1 N HCl), simulated gastric fluid; 750 mL 0.1 N HCl, 37° C.
For data set [3] the following is noted: model APIs; cited from earlier work.
Data set [4] in a line: Physical form and Tg of formulations by XRPD and/or DSC. In kind it is physicochemical. The conditions noted are these: as prepared. The procedure: The physical form of the product is identified visually (e.g., solid powder) and by XRPD and/or DSC (to assess amorphous or crystalline state). Tg values are estimates from DSC curves.
X-ray Powder Diffraction (XRPD) is performed with a Panalytical X'Pert^3 Powder XRPD. FIGS. 8-10 show XRPD plots for various formulations made using ITZ and PAA-8. In FIG. 8, plots for ITZ alone (Neat IZT, Formulation F25), a physical mixture of 15% ITZ and 85% PAA (PM 15%, Formulation F26), and a spray-dried solid dispersion of 15% ITZ and 85% PAA (ASD 15%, Formulation F2), are shown. In FIG. 9, plots for ITZ alone (Neat IZT, Formulation F25), a physical mixture of 30% ITZ and 70% PAA (PM 30%, Formulation F27), and a spray-dried solid dispersion of 30% ITZ and 70% PAA (ASD 30%, Formulation F3), are shown. In FIG. 10, plots for ITZ alone (Neat IZT, Formulation F25), a physical mixture of 50% ITZ and 50% PAA (PM 50%, Formulation F28), and a spray-dried solid dispersion of 50% ITZ and 50% PAA (ASD 50%, Formulation F5), are shown.
XRPD is performed with Si zero background holders. The 2-theta position is performed with a Panalytical Si reference standard disc. The XRPD instrument configuration is Bragg-Brentano geometry.
Differential Scanning calorimetry (DSC) is performed with a Mettler-Toldeo DSC-1 instrument (no modulated DSC software) using a sample amount of 5-10 mg. […]

One may read the Aqueous solubility as the dissolved amount per volume that the medium holds. As a reminder, the solubility is the dissolved amount per volume that the medium holds. Higher therefore signals a readily soluble substance. As for `CCC(C)n1ncn(-c2ccc(N3CCN(c4ccc(OCC5COC(Cn6cncn6)(c6ccc(Cl)cc6Cl)O5)cc4)CC3)cc2)c1=O` [Itraconazole, 1-(butan-2-yl)-4-{4-[4-(4-{[(2R, 4S)-2-(2,4-dichlorophenyl)-2-(1H-1,2,4-triazol-1-ylmethyl)-1,3-dioxolan-4-yl]methoxylphenyl)piperazin-1-yl]phenyl}-4,5-dihydro-1H-1,2,4-triazol-5-one], the Aqueous solubility in data set [1] was 0.001 to 0.004 µg/mL. Besides, the solubility in water in data set [1] (water) is 0.001 to 0.004 µg/mL. Also, the solubility in data set [2] was 4 to 6 µg/mL (≈ 5.67 to 8.5 µM).
Take `CC(C)c1nc(CN(C)C(=O)N[C@H](C(=O)N[C@@H](Cc2ccccc2)C[C@H](O)[C@H](Cc2ccccc2)NC(=O)OCc2cncs2)C(C)C)cs1` [Ritonavir, 5-thiazolylmethyl ((alphaS)-alpha-((1S,3S)-1-hydroxy-3-((2S)-2-(3-((2-isopropyl-4-thiazolyl)methyl)-3-methylureido)-3-methylbutyramido)-4-phenylbutyl)phenethyl)carbamate]: in data set [3], the “Glass transition temperature, Tg (° C.)” value was 45 °C. Further, in data set [4], the Form result is reported as “Crystalline”.
